Experimental data reported in publication PMC10179505, “Rivastigmine–Benzimidazole Hybrids as Promising Multitarget Metal-Modulating Compounds for Potential Treatment of Neurodegenerative Diseases” (International Journal of Molecular Sciences, 2023).

What was measured:
Aβ42 [1] = conditions: absence of copper, 20 µM inhibitor, thioflavin-T fluorescence; cited from earlier work
Aβ42 [2] = conditions: presence of copper (40 µM), 20 µM inhibitor, thioflavin-T fluorescence; cited from earlier work
hMAO-A = biological target: T1, hMAO-A (Homo sapiens, UniProt P21397); assay: hMAO-A inhibition (kynuramine to 4-hydroxyquinoline, microsomal recombinant enzyme); type: biochemical; conditions: for hMAO isoform selectivity: hMAO-A vs hMAO-B
T1 construct: purchased Sigma-Aldrich Quimica S.A., Madrid, Spain; host or cells: insect cells (BTI-TN-5B1-4) infected with recombinant baculovirus
T1 sequence (P21397 1-527): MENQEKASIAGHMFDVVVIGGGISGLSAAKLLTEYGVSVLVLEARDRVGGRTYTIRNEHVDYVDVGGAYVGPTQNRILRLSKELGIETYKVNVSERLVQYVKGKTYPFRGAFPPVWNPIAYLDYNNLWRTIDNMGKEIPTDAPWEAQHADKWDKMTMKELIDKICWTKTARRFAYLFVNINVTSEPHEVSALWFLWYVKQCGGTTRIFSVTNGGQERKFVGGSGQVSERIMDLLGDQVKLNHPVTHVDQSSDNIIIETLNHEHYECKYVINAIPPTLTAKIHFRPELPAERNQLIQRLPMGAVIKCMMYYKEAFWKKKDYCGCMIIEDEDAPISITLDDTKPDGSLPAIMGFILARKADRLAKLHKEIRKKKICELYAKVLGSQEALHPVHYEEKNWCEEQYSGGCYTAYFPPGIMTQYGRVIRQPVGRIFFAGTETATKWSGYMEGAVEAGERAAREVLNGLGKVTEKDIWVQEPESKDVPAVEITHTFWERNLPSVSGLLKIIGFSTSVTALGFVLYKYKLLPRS
Description: (§1) The inhibitory activity of the rivastigmine hybrids (RIV–BIM) on hMAO-A and hMAO-B was studied using an experimental protocol described elsewhere with some modifications. The outlined hMAO inhibition was assessed in microsomal MAO isoforms prepared from insect cells (BTI-TN-5B1-4) infected with recombinant baculovirus containing cDNA inserts for hMAO-A or hMAO-B (Sigma-Aldrich Quimica S.A., Madrid, Spain) and by measuring the enzymatic conversion rates of kynuramine into 4-hydroxyquinoline. […] All assays were performed under sodium phosphate-buffered conditions (50 mM, pH = 7.4). […] Then, the reaction was started with the addition of hMAO-A or hMAO-B. Initial velocities were determined spectrophotometrically in a microplate reader (Biotek Synergy HT, Winooski, VT, USA) at 37 °C by measuring the formation of 4-hydroxyquinoline at 316 nm, over a period of at least 30 min (interval of 1 min). Data were analyzed using GraphPad PRISM version 6 for Windows (GraphPad Software®, San Diego, CA, USA). The initial velocities, obtained from the linear phase of product formation, were normalized and plotted against the respective inhibitor concentration. IC50 values were obtained from dose–response curves and were expressed as the mean ± standard deviation. IC50 values were determined from at least three independent experiments, each performed in triplicate.

SH-SY5Y cells = type: cell-based, human; conditions: 1 µM compound, 1 h pre-incubation, then 0.5 mM MPP+ for 24 h
Description: SH-SY5Y human neuroblastoma cells were kept in culture under a humidified atmosphere of 5% CO2 at 37 °C in Dulbecco’s Modified Eagle Medium/Nutrient Mixture F-12 (DMEM/F-12) (Gibco, Thermo Fisher Scientific) supplemented with 10% heat-inactivated fetal bovine serum (FBS), 50 U/mL penicillin, and 50 μg/mL streptomycin. Cells were plated at a density of 1 × 10^5 cells/mL and pre-incubated for 1 h with the compounds by adding them to the medium at the following final concentrations: 1 µM for compounds 4a, 4b, and 5b; 2 µM for compounds 4c and 5a; and 3 µM for compound 4d. Then the cells were incubated for 24 h with MPP^+ (1-methyl-4-phenylpyridinium, Sigma-Aldrich) (1 h pre-incubation + 24 h incubation) at the final concentration of 0.5 mM. MPP^+ was freshly prepared in sterile water on the day of the experiment. The compounds were dissolved in DMSO, aliquoted, and stored at −20 °C; their toxicity was previously studied through cell viability assays to select the highest non-toxic concentration of each compound.
Cell viability was measured by the colorimetric MTT (3-(4,5-dimethylthiazol-2-yl)-2,5-diphenyltetrazolium bromide) reduction assay, which follows the principle that viable cells can metabolize MTT into formazan that absorbs light at 570 nm. After the cell treatments with the compounds and MPP^+, the culture medium was removed, 150 µL of MTT (0.5 mg/mL dissolved in sodium medium) was added to each well, and the 48-well plate was incubated at 37 °C for 2 h. The formazan precipitates were then solubilized with 150 µL of 0.04 M HCl/isopropanol. The absorbance was read at 570 nm using a spectrophotometer (Spectramax Plus 384), and cell viability results were normalized to untreated SH-SY5Y cells, with the means ± SEMs derived from six different experiments performed in duplicate (N = 6). Statistical analyses were performed on GraphPad Prism 8 (GraphPad Software, San Diego, CA, USA) using one-way analysis of variance (ANOVA) followed by Tukey’s post hoc test or using Student’s t-test to determine statistical significance.

hMAO-B = biological target: T2, hMAO-B (Homo sapiens, UniProt P27338); assay: hMAO-B inhibition (kynuramine to 4-hydroxyquinoline, microsomal recombinant enzyme); type: biochemical
T2 construct: purchased Sigma-Aldrich Quimica S.A., Madrid, Spain; host or cells: insect cells (BTI-TN-5B1-4) infected with recombinant baculovirus
T2 sequence (P27338 1-520): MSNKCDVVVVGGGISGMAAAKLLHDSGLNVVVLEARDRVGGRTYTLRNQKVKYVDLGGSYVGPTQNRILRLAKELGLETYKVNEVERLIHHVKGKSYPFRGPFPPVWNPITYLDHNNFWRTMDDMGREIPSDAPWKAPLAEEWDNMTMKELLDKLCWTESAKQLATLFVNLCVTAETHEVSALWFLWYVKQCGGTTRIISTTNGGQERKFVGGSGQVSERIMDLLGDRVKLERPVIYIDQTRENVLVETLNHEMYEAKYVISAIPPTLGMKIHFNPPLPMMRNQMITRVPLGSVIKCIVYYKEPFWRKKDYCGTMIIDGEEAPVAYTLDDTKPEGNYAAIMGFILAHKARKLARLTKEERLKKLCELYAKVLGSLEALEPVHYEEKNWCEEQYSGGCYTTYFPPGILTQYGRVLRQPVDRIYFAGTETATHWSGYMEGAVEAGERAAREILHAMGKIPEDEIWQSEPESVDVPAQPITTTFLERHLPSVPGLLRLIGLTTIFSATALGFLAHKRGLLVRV
Description: as §1

[3] = Fe(III) complexation by spectrophotometric titration; type: physicochemical
Description: (§2) The metal complexation studies were performed by spectrophotometric titration, in the same 50% w/w DMSO/water medium used for both ligands alone, with fitting analysis of the UV-Vis spectra by Psequad. The calculated metal-chelating equilibrium models, included in Table 1, show good chelating capacity towards Cu(II) (pCu~10.3–13.6) and Fe(III) (pFe~16.8–17.4), involving complex species with a 1:1 to 1:2 or 1:1 to 1:3 M/L ratio, respectively. Metal coordination is expected to occur primarily through the phenolic oxygen and the imidazole nitrogen N(3) of the BIM moiety.
(§3) The two positional isomeric hybrids 4c and 5a were titrated, alone or in the presence of the metal ions, in a 50% w/w DMSO/H2O medium, at T = 25.0 ± 0.1 °C and ionic strength of (I) 0.1 M KCl, by using a 0.1 M KOH (50% w/w DMSO/H2O) titrant solution. The glass and Ag/AgCl reference electrodes were previously conditioned in different DMSO/H2O mixtures of increasing DMSO % compositions, and the response of the glass electrode was evaluated by strong acid–strong base (HCl/KOH) calibrations with the determination of the Nernst parameters by Gran’s method. […] The spectrophotometric measurements were carried out in a 250–450 nm (L, Cu/L systems) or 250–650 nm (L, Fe/L systems) wavelength range at pH ca 2.5–8.0. Under these specified experimental conditions, the pKw value (14.95) was determined and subsequently used in the calculations. The stepwise protonation constants of the ligands, Ki = [HiL]/[Hi−1L][H], and the overall metal–complex stability constants, βMmHhLl = [MmHhLl]/[M]^m[H]^h[L]^l, were calculated by fitting the spectrophotometric data with the Psequad program. The metal hydrolysis model was determined under the established experimental conditions (I = 0.1 M KCl, 50% w/w DMSO/H2O, T = 25.0 ± 0.1 °C) and the following values of stability constants were included in the equilibrium models related to the Fe(III)/L and Cu(II)/L systems: log βFeH−1 = −4.07, log βFeH−3 = −11.42; log βCu2H−2 = −9.99. The species distribution curves were obtained with the Hyss program.

[4] = Cu(II) complexation by spectrophotometric titration; type: physicochemical
Description: as §2, §3

[5] = Protonation constants by spectrophotometric titration (Psequad fitting); type: physicochemical; conditions: pH 7.4, CL = 1 × 10^−5 M
Description: To formulate the model for the metal chelation mechanism of compounds 4c and 5a, their protonation constants were first determined by spectrophotometric titrations in a 50% (w/w) DMSO/H2O medium by fitting the experimental data with the program Psequad. This working medium was adopted to perform all the equilibrium studies due to certain solubility problems of the compounds. Since the concentration of the compound used in cell studies is low (<7 μM), the final corresponding concentration of DMSO in culture media would be much lower (<1%) and also is not expected to induce modifications of biological tissues.
The two positional isomeric hybrids 4c and 5a were titrated, alone or in the presence of the metal ions, in a 50% w/w DMSO/H2O medium, at T = 25.0 ± 0.1 °C and ionic strength of (I) 0.1 M KCl, by using a 0.1 M KOH (50% w/w DMSO/H2O) titrant solution. The glass and Ag/AgCl reference electrodes were previously conditioned in different DMSO/H2O mixtures of increasing DMSO % compositions, and the response of the glass electrode was evaluated by strong acid–strong base (HCl/KOH) calibrations with the determination of the Nernst parameters by Gran’s method. […] Under these specified experimental conditions, the pKw value (14.95) was determined and subsequently used in the calculations. […]

[6] = pM = −log[M] at pH 7.4, CL/CM = 10, CM = 10^−6 M

| SMILES | Aβ42 Self- Aggreg. Inhib. (Aβ42 [1]) [%] | Aβ42 Cu-ind. Aggreg. Inhib. (Aβ42 [2]) [%] | IC50 (hMAO-A) [µM] | hMAO isoform selectivity (hMAO-A) | protection on MPP+-induced toxicity (cell viability, MTT) (SH-SY5Y cells) | inhibition at 10 µM (hMAO-B) [%] | inhibition at 10 µM (hMAO-A; read-out: % Inhibition (at 10 µM) hMAO-A) [%] | log βFemHhLl, global formation constant, species (102) ([3]; FeL2 (102), T = 25.0 ± 0.1 °C, I = 0.1 M KCl, 50% w/w DMSO/water) | log βFemHhLl, global formation constant, species (103) ([3]; FeL3 (103), T = 25.0 ± 0.1 °C, I = 0.1 M KCl, 50% w/w DMSO/water) | log βFemHhLl, global formation constant, species (101) ([3]; FeL (101), T = 25.0 ± 0.1 °C, I = 0.1 M KCl, 50% w/w DMSO/water) | pM (pFe) [3, 6] | logβCumHhLl, global formation constant, species (1–11) ([4]; CuH−1L (1–11), T = 25.0 ± 0.1 °C, I = 0.1 M KCl, 50% w/w DMSO/water) | logβCumHhLl, global formation constant, species (102) ([4]; CuL2 (102), T = 25.0 ± 0.1 °C, I = 0.1 M KCl, 50% w/w DMSO/water) | logβCumHhLl, global formation constant, species (101) ([4]; CuL (101), T = 25.0 ± 0.1 °C, I = 0.1 M KCl, 50% w/w DMSO/water) | Kd ([4]; calculated at pH 7.4, read-out: conditional dissociation constant (K’d) for the copper complex) [µM] | pM (pCu) [4, 6] | predominant neutral species HL [5] [%] |
| --- | --- | --- | --- | --- | --- | --- | --- | --- | --- | --- | --- | --- | --- | --- | --- | --- | --- |
| CCN(C)C(=O)Oc1cccc(NC(=O)c2ccc3[nH]c(-c4ccccc4O)nc3c2)c1 [4a] | 39.0 | 41.2 | 0.74 ± 0.07 | selective for isoform A | significant protection | 28 |  |  |  |  |  |  |  |  |  |  |  |
| CCN(C)C(=O)Oc1cccc(CNC(=O)c2ccc3[nH]c(-c4ccccc4O)nc3c2)c1 [4b] | 39.6 | 48.8 | 8.6 ± 0.9 | selective for isoform A |  | 43 |  |  |  |  |  |  |  |  |  |  |  |
| CCN(C)C(=O)Oc1cccc(CCNC(=O)c2ccc3[nH]c(-c4ccccc4O)nc3c2)c1 [4c] | 21.2 | 22.0 |  |  |  | 33 | 30 | 20.35(7) | 28.40(6) | 11.57(6) | 16.8 | 3.40(5) | 17.16(8) | 9.09(5) | 0.032 | 10.3 | 97.4 |
| CCN(C)C(=O)Oc1ccc(CCCNC(=O)c2ccc3[nH]c(-c4ccccc4O)nc3c2)cc1 [4d] | 20.1 | 21.3 | 11 ± 1 | selective for isoform A |  | 43 |  |  |  |  |  |  |  |  |  |  |  |
